According to patent US11051515B2, “3-acyl-benzamides and their use as herbicides” (Bayer Aktiengesellschaft, priority 2017, dated 2021):

Key:
ALOMY [1] = experiment: Pre-emergence action against ALOMY; assay type: in vivo, Alopecurus myosuroides; settings: dosage 320 g/ha; pre-emergence; scored visually after 3 weeks vs untreated controls; 100% = plants have died, 0% = like control plants
Summary of the method: (§1)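 Seeds sown in sandy loam in wood-fiber pots and covered with soil. Greenhouse growth; visual damage scored after 3 weeks versus untreated controls (100% = dead, 0% = like control).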

AVEFA [2] = experiment: Pre-emergence action against AVEFA; assay type: in vivo, Avena fatua; settings: dosage 320 g/ha, scored visually after 3 weeks vs untreated controls
Summary of the method: as §1

CYPES [3] = experiment: Pre-emergence action against CYPES; assay type: in vivo, Cyperus esculentus; settings: pre-emergence, dosage 320 g/ha, scored visually after 3 weeks vs untreated controls
Summary of the method: as §1

ECHCG [4] = experiment: Pre-emergence action against ECHCG; assay type: in vivo, Echinochloa crus-galli; settings: pre-emergence, dosage 320 g/ha, scored visually after 3 weeks vs untreated controls
Summary of the method: as §1

LOLMU [5] = experiment: Pre-emergence action against LOLMU; assay type: in vivo, Lolium multiflorum; settings: dosage 320 g/ha, scored visually after 3 weeks vs untreated controls
Summary of the method: as §1

SETVI [6] = experiment: Pre-emergence action against SETVI; assay type: in vivo, Setaria viridis; settings: pre-emergence, dosage 320 g/ha, scored visually after 3 weeks vs untreated controls
Summary of the method: as §1

ABUTH [7] = experiment: Pre-emergence action against ABUTH; assay type: in vivo, Abutilon theophrasti; settings: pre-emergence, dosage 320 g/ha, scored visually after 3 weeks vs untreated controls
Summary of the method: as §1

AMARE [8] = experiment: Pre-emergence action against AMARE; assay type: in vivo, Amaranthus retroflexus; settings: pre-emergence, dosage 320 g/ha, scored visually after 3 weeks vs untreated controls
Summary of the method: as §1

MATIN [9] = experiment: Pre-emergence action against MATIN; assay type: in vivo, Matricaria inodora; settings: Dosage 320 g/ha, pre-emergence
Summary of the method: as §1

PHBPU [10] = experiment: Pre-emergence action against PHBPU; assay type: in vivo, Pharbitis purpurea; settings: Dosage 320 g/ha, pre-emergence
Summary of the method: as §1

STEME [11] = experiment: Pre-emergence action against STEME; assay type: in vivo, Stellaria media; settings: Dosage 320 g/ha, pre-emergence
Summary of the method: as §1

VIOTR [12] = experiment: Pre-emergence action against VIOTR; assay type: in vivo, Viola tricolor; settings: Dosage 320 g/ha, pre-emergence
Summary of the method: as §1

VERPE [13] = experiment: Pre-emergence action against VERPE; assay type: in vivo, Veronica persica; settings: Dosage 320 g/ha, pre-emergence
Summary of the method: as §1

ALOMY [14] = experiment: Post-emergence action against ALOMY; assay type: in vivo, Alopecurus myosuroides; settings: Dosage 80 g/ha, post-emergence
Summary of the method: (§2)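 Post-emergence foliar spray on greenhouse plants at the one-leaf stage, using wettable-powder or emulsion-concentrate formulations in water (600 to […], plus 0.2% wetting agent). Damage scored by eye roughly 3 weeks later against untreated plants: 0% = like control, 100% = dead.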

AVEFA [15] = experiment: Post-emergence action against AVEFA; assay type: in vivo, Avena fatua; settings: post-emergence, dosage 80 g/ha, visual assessment about 3 weeks after treatment vs untreated controls
Summary of the method: as §2

CYPES [16] = experiment: Post-emergence action against CYPES; assay type: in vivo, Cyperus esculentus; settings: post-emergence, dosage 80 g/ha, visual assessment about 3 weeks after treatment vs untreated controls
Summary of the method: as §2

ECHCG [17] = experiment: Post-emergence action against ECHCG; assay type: in vivo, Echinochloa crus-galli; settings: post-emergence, dosage 80 g/ha, visual assessment about 3 weeks after treatment vs untreated controls
Summary of the method: as §2

LOLMU [18] = experiment: Post-emergence action against LOLMU; assay type: in vivo, Lolium multiflorum; settings: dosage 80 g/ha, visual assessment about 3 weeks after treatment vs untreated controls
Method: Seeds of monocotyledonous and dicotyledonous weed and crop plants are laid out in sandy loam soil in wood-fiber pots, covered with soil and cultivated in a greenhouse under good growth conditions. 2 to 3 weeks after sowing, the test plants are treated at the one-leaf stage. The compounds of the invention, formulated in the form of wettable powders (WP) or as emulsion concentrates (EC), are then sprayed onto the green parts of the plants in the form of an aqueous suspension or emulsion at a water application rate equating to […], with addition of 0.2% wetting agent. After the test plants have been left to stand in the greenhouse under optimal growth conditions for about 3 weeks, the action of the preparations is assessed visually in comparison to untreated controls (herbicidal action in percent (%): 100% activity=the plants have died, 0% activity=like control plants). […] At the same time, inventive compounds leave Gramineae crops such as barley, wheat, rye, millet/Sorghum, corn or rice virtually undamaged when applied post-emergence, even at high active ingredient dosages. In addition, some substances are also harmless to dicotyledonous crops such as soya, cotton, oilseed rape, sugar beet or potatoes. Some of the compounds according to the invention have high selectivity and are therefore suitable for controlling unwanted vegetation in agricultural crops by the post-emergence method. The data of Tables B18 to B34 below illustrate, in an exemplary manner, the […] herbicidal action of the compounds according to the invention, the herbicidal activity being stated in percent.

SETVI [19] = experiment: Post-emergence action against SETVI; assay type: in vivo, Setaria viridis; settings: post-emergence, dosage 80 g/ha, visual assessment about 3 weeks after treatment vs untreated controls
Summary of the method: as §2

ABUTH [20] = experiment: Post-emergence action against ABUTH; assay type: in vivo, Abutilon theophrasti; settings: post-emergence, dosage 80 g/ha, visual assessment about 3 weeks after treatment vs untreated controls
Summary of the method: as §2

AMARE [21] = experiment: Post-emergence action against AMARE; assay type: in vivo, Amaranthus retroflexus; settings: post-emergence, dosage 80 g/ha, visual assessment about 3 weeks after treatment vs untreated controls
Summary of the method: as §2

MATIN [22] = experiment: Post-emergence action against MATIN; assay type: in vivo, Matricaria inodora; settings: post-emergence, dosage 80 g/ha, visual assessment about 3 weeks after treatment vs untreated controls
Summary of the method: as §2

PHBPU [23] = experiment: Post-emergence action against PHBPU; assay type: in vivo, Pharbitis purpurea; settings: post-emergence, dosage 80 g/ha
Summary of the method: as §2

POLCO = experiment: Post-emergence action against POLCO; assay type: in vivo, Polygonum convolvulus; settings: post-emergence, dosage 80 g/ha
Summary of the method: as §2

STEME [24] = experiment: Post-emergence action against STEME; assay type: in vivo, Stellaria media; settings: post-emergence, dosage 80 g/ha
Summary of the method: as §2

VIOTR [25] = experiment: Post-emergence action against VIOTR; assay type: in vivo, Viola tricolor; settings: post-emergence, dosage 80 g/ha
Summary of the method: as §2

VERPE [26] = experiment: Post-emergence action against VERPE; assay type: in vivo, Veronica persica; settings: dosage 80 g/ha
Summary of the method: as §2

SMILES	Pre-emergence action against ALOMY (herbicidal activity in percent) (ALOMY [1]) [%]	Pre-emergence action against AVEFA (herbicidal activity) (AVEFA [2]) [%]	Pre-emergence action against CYPES (herbicidal activity) (CYPES [3]) [%]	Pre-emergence action against ECHCG (herbicidal activity) (ECHCG [4]) [%]	Pre-emergence action against LOLMU (herbicidal activity) (LOLMU [5]) [%]	SETVI (Table B8, pre-emergence herbicidal activity) (SETVI [6]) [%]	Pre-emergence action against ABUTH (herbicidal activity) (ABUTH [7]) [%]	Pre-emergence action against AMARE (herbicidal activity) (AMARE [8]) [%]	Pre-emergence action against MATIN (MATIN [9]) [%]	Pre-emergence action against STEME (STEME [11]) [%]	Pre-emergence action against VIOTR (VIOTR [12]) [%]	Pre-emergence action against VERPE (VERPE [13]) [%]	Post-emergence action against ALOMY (ALOMY [14]) [%]	Post-emergence action against AVEFA (herbicidal action in percent) (AVEFA [15]) [%]	Post-emergence action against CYPES (herbicidal action in percent) (CYPES [16]) [%]	Post-emergence action against ECHCG (herbicidal action in percent) (ECHCG [17]) [%]	Post-emergence action against LOLMU (herbicidal action in percent) (LOLMU [18]) [%]	Post-emergence action against SETVI (herbicidal action in percent) (SETVI [19]) [%]	Post-emergence action against ABUTH (herbicidal action in percent) (ABUTH [20]) [%]	Post-emergence action against AMARE (herbicidal action in percent) (AMARE [21]) [%]	also measured
CCC(=O)c1c(C(F)(F)F)ccc(C(=O)Nc2nnnn2CC)c1C [2-15]	100	100	90	100	100	100	100	100	100	100	100	100	100	80	90	90	90	100	100	90	Pre-emergence action against PHBPU (PHBPU [10]): 80%; Post-emergence action against MATIN (herbicidal action in percent) (MATIN [22]): 90%; Post-emergence action against PHBPU (PHBPU [23]): 80; Post-emergence action against POLCO (POLCO): 100; Post-emergence action against STEME (STEME [24]): 100; Post-emergence action against VIOTR (VIOTR [25]): 100; Post-emergence action against VERPE (VERPE [26]): 90
CCn1nnnc1NC(=O)c1ccc(S(C)(=O)=O)c(C(=O)C2CC2)c1Cl [2-129]	90	100	100	100	90	100	100	100	100	100	100	100	100	100	80	90	90	100	80	100	Post-emergence action against MATIN (herbicidal action in percent) (MATIN [22]): 100%; Post-emergence action against PHBPU (PHBPU [23]): 100; Post-emergence action against POLCO (POLCO): 100; Post-emergence action against STEME (STEME [24]): 100; Post-emergence action against VIOTR (VIOTR [25]): 100; Post-emergence action against VERPE (VERPE [26]): 100
